These results are taken from BindingDB's records for doi:10.7270/Q2QN6575 (Nmmlsc, 2011).

One may read the EC50 as the concentration needed to bring the measured effect to its halfway point.

The target in one assay is T1, Citrate synthase, peroxisomal [1-24] (Saccharomyces cerevisiae, UniProt P08679).
T1 construct: 1-24
T1 sequence (P08679 1-24): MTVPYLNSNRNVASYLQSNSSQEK
The experiment in a line: yeast TOR pathway CIT2-GFP reporter analogs – flow cytometry, cherry pick 3, dose response, SAR follow-up (AID 488825).
Settings: not given
(In flow cytometry, cells or beads pass a laser one at a time.)
The compound `Cc1nc(Nc2ccc(Br)cc2Br)c([N+](=O)[O-])c(=O)[nH]1` [6-[[2,4-bis(bromanyl)phenyl]amino]-2-methyl-5-nitro-1H-pyrimidin-4-one] came in with an EC50 of 74.1 µM.

The same assay, now with this note: inactive by the depositor's call.
Compound `COc1ccccc1-c1cc(C(F)(F)F)nc(S(=O)(=O)CCCC(=O)O)n1` [4-[4-(2-methoxyphenyl)-6-(trifluoromethyl)pyrimidin-2-yl]sulfonylbutanoic acid] gave an EC50 of 58 µM.
Compound `Cc1ccc(C(=O)Nc2nc(-c3ccccn3)cs2)o1` [5-methyl-N-[4-(2-pyridinyl)-2-thiazolyl]-2-furancarboxamide] returned an EC50 of 3680 µM. Against the preceding compound, the EC50 is about 63-fold higher.
On the same count and under the same terms, to `O=C(O)c1ccc2cccc(O)c2n1` [8-oxidanylquinoline-2-carboxylic acid] belongs 300 µM; to `Oc1c(Cl)cc(Cl)c2cccnc12` [AS-229], 19800 µM.
On the same count and under the same terms, to `CCC(C)Nc1nc(N)c([N+](=O)[O-])c(Nc2ccccc2OC)n1` (stereo unspecified) [SMR000434817] belongs 128 µM.
